Where no end group is shown, it is not given here.

For the assay, the system named is S. aureus (ATCC 6538). It counts as cell-based, Staphylococcus aureus. As to conditions: ATCC 6538, 24 h. The text has this:
Seven microorganism strains were used to preliminarily evaluate the antimicrobial activity of PSTO2 and its analogues, including Staphylococcus aureus (S. aureus) (ATCC® 6538), methicillin-resistant Staphylococcus aureus (MRSA) (NCTC® 12493), Enterococcus faecalis (E. faecalis) (NCTC® 12697), E. coli (ATCC® 8739), Klebsiella pneumonia (K. pneumonia) (ATCC® 43816), Pseudomonas aeruginosa (P. aeruginosa) (ATCC® CRM 9027), Acinetobacter baumanni (A. baumanni) (BAA® 747), and Candida albicans (C. albicans) (ATCC® 10231). In this study, the strains were cultured in Mueller–Hinton broth (MHB), nutrient broth (NB), and yeast–peptone–dextrose broth (YPD-B) correspondingly at 37 °C, with shaking at 120 rpm. Each peptide was dissolved from 128 μM to 1 μM and mixed with the bacterium at 5 × 10^5 CFU/mL. […]
After being incubated for 24 h, a Synergy HT plate reader (Bio-Tek, Shoreline, WA, USA) was used to detect the absorbance of each well in the 96-well plate at λ = 550 nm. The concentration at which no visible turbidity could be recorded was the MIC value. […] The plate was checked the next day for colony formation, and the lowest concentration at which no colony growing was recorded as an MBC value. […]

For FLSLIPKAIKAVKALAKKL-NH2 [SR2], the MBC – broadly, the smallest concentration meeting the test's criterion for killing – amounted to 2 µM and the MIC (commonly the lowest concentration that inhibits growth of the organism) amounted to 2 µM.
